Test results reported in the CheMixHub viscosity set.
“And” between values parts separate entries of the source, which are not always exact repeats. Identical values can stand only once. ± gives the uncertainty stated by the source.

Assay: xn = mol fraction of the nth substance listed

c1ccc2ccccc2c1 + CCCCCC
viscosity (298.15 K, 101 kPa, x1 = 0.09526): 0.3806 ± 0.0095 mPa·s
viscosity (298.15 K, 101.33 kPa, x1 = 0.09526): 0.3806 ± 0.0038 mPa·s
viscosity (303.15 K, 101 kPa, x1 = 0.09526): 0.3636 ± 0.0091 mPa·s
viscosity (303.15 K, 101 kPa, x1 = 0.1771): 0.4135 ± 0.01 mPa·s
viscosity (303.15 K, 101.33 kPa, x1 = 0.09526): 0.3636 ± 0.0036 mPa·s and 0.3636 ± 0.038 mPa·s
viscosity (303.15 K, 101.33 kPa, x1 = 0.1185): 0.3813 ± 0.039 mPa·s
viscosity (303.15 K, 101.33 kPa, x1 = 0.1464): 0.3926 ± 0.041 mPa·s
viscosity (303.15 K, 101.33 kPa, x1 = 0.1771): 0.4135 ± 0.043 mPa·s
viscosity (303.15 K, 101.33 kPa, x1 = 0.18): 0.4135 ± 0.0041 mPa·s
viscosity (308.15 K, 101 kPa, x1 = 0.09526): 0.3455 ± 0.0087 mPa·s
viscosity (308.15 K, 101 kPa, x1 = 0.1771): 0.3922 ± 0.0098 mPa·s
viscosity (308.15 K, 101.33 kPa, x1 = 0.09526): 0.3455 ± 0.0035 mPa·s
viscosity (308.15 K, 101.33 kPa, x1 = 0.18): 0.3922 ± 0.0039 mPa·s
viscosity (313.15 K, 101 kPa, x1 = 0.09526): 0.331 ± 0.0083 mPa·s
viscosity (313.15 K, 101 kPa, x1 = 0.1771): 0.3737 ± 0.0094 mPa·s
viscosity (313.15 K, 101.33 kPa, x1 = 0.09526): 0.331 ± 0.0033 mPa·s
viscosity (313.15 K, 101.33 kPa, x1 = 0.18): 0.3737 ± 0.0037 mPa·s
viscosity (318.15 K, 101 kPa, x1 = 0.09526): 0.3166 ± 0.0079 mPa·s
viscosity (318.15 K, 101 kPa, x1 = 0.1771): 0.3567 ± 0.0089 mPa·s
viscosity (318.15 K, 101.33 kPa, x1 = 0.09526): 0.3166 ± 0.0032 mPa·s and 0.3166 ± 0.033 mPa·s
viscosity (318.15 K, 101.33 kPa, x1 = 0.1185): 0.3268 ± 0.034 mPa·s
viscosity (318.15 K, 101.33 kPa, x1 = 0.1464): 0.3406 ± 0.035 mPa·s
viscosity (318.15 K, 101.33 kPa, x1 = 0.1771): 0.3567 ± 0.037 mPa·s
viscosity (318.15 K, 101.33 kPa, x1 = 0.18): 0.3567 ± 0.0036 mPa·s
viscosity (318.15 K, 101.33 kPa, x1 = 0.2165): 0.3785 ± 0.039 mPa·s

c1ccc2ccccc2c1 + O=[N+]([O-])c1ccccc1
viscosity (303.15 K, 101 kPa, x1 = 0.2952): 1.646 ± 0.041 mPa·s
viscosity (308.15 K, 101 kPa, x1 = 0.2952): 1.544 ± 0.039 mPa·s
viscosity (308.15 K, 101 kPa, x1 = 0.4191): 1.578 ± 0.04 mPa·s
viscosity (313.15 K, 101 kPa, x1 = 0.2952): 1.44 ± 0.036 mPa·s
viscosity (313.15 K, 101 kPa, x1 = 0.4191): 1.45 ± 0.036 mPa·s
viscosity (318.15 K, 101 kPa, x1 = 0.2952): 1.329 ± 0.034 mPa·s
viscosity (318.15 K, 101 kPa, x1 = 0.4191): 1.346 ± 0.034 mPa·s
viscosity (323.15 K, 101 kPa, x1 = 0.2952): 1.231 ± 0.031 mPa·s
viscosity (323.15 K, 101 kPa, x1 = 0.4191): 1.252 ± 0.032 mPa·s

CC1COC(=O)O1 (stereo not given) + C1CCOC1
viscosity (298.15 K, 101 kPa, x2 = 0.2): 1.7 ± 0.02 mPa·s
viscosity (298.15 K, 101 kPa, x2 = 0.6): 0.862 ± 0.008 mPa·s
viscosity (298.15 K, 101.33 kPa, x2 = 0.0524): 2.227 ± 0.017 mPa·s
viscosity (298.15 K, 101.33 kPa, x2 = 0.1036): 2.023 ± 0.015 mPa·s
viscosity (298.15 K, 101.33 kPa, x2 = 0.1429): 1.87 ± 0.014 mPa·s
viscosity (298.15 K, 101.33 kPa, x2 = 0.2064): 1.674 ± 0.012 mPa·s
viscosity (298.15 K, 101.33 kPa, x2 = 0.2431): 1.567 ± 0.011 mPa·s
viscosity (298.15 K, 101.33 kPa, x2 = 0.3083): 1.393 ± 0.01 mPa·s
viscosity (298.15 K, 101.33 kPa, x2 = 0.3478): 1.303 ± 0.0093 mPa·s
viscosity (298.15 K, 101.33 kPa, x2 = 0.4095): 1.171 ± 0.0083 mPa·s
viscosity (298.15 K, 101.33 kPa, x2 = 0.6094): 0.8417 ± 0.006 mPa·s
viscosity (298.15 K, 101.33 kPa, x2 = 0.6479): 0.7836 ± 0.0056 mPa·s
viscosity (298.15 K, 101.33 kPa, x2 = 0.7082): 0.7171 ± 0.0051 mPa·s
viscosity (298.15 K, 101.33 kPa, x2 = 0.7635): 0.6549 ± 0.0047 mPa·s
viscosity (298.15 K, 101.33 kPa, x2 = 0.8062): 0.6195 ± 0.0045 mPa·s
viscosity (298.15 K, 101.33 kPa, x2 = 0.8388): 0.5831 ± 0.0042 mPa·s
viscosity (298.15 K, 101.33 kPa, x2 = 0.9035): 0.5357 ± 0.0039 mPa·s
viscosity (298.15 K, 101.33 kPa, x2 = 0.9631): 0.485 ± 0.0036 mPa·s
viscosity (308.15 K, 101.33 kPa, x2 = 0.0524): 1.858 ± 0.014 mPa·s
viscosity (308.15 K, 101.33 kPa, x2 = 0.1036): 1.709 ± 0.013 mPa·s
viscosity (308.15 K, 101.33 kPa, x2 = 0.1429): 1.598 ± 0.012 mPa·s
viscosity (308.15 K, 101.33 kPa, x2 = 0.2064): 1.432 ± 0.01 mPa·s
viscosity (308.15 K, 101.33 kPa, x2 = 0.2431): 1.351 ± 0.0099 mPa·s
viscosity (308.15 K, 101.33 kPa, x2 = 0.3083): 1.208 ± 0.0088 mPa·s
viscosity (308.15 K, 101.33 kPa, x2 = 0.3478): 1.133 ± 0.0082 mPa·s
viscosity (308.15 K, 101.33 kPa, x2 = 0.4095): 1.025 ± 0.0074 mPa·s
viscosity (308.15 K, 101.33 kPa, x2 = 0.5098): 0.8753 ± 0.0063 mPa·s
viscosity (308.15 K, 101.33 kPa, x2 = 0.5621): 0.8044 ± 0.0058 mPa·s
viscosity (308.15 K, 101.33 kPa, x2 = 0.6094): 0.7503 ± 0.0054 mPa·s
viscosity (308.15 K, 101.33 kPa, x2 = 0.6479): 0.7016 ± 0.0051 mPa·s
viscosity (308.15 K, 101.33 kPa, x2 = 0.7082): 0.6445 ± 0.0047 mPa·s
viscosity (308.15 K, 101.33 kPa, x2 = 0.7635): 0.596 ± 0.0044 mPa·s
viscosity (308.15 K, 101.33 kPa, x2 = 0.8388): 0.5361 ± 0.004 mPa·s
viscosity (308.15 K, 101.33 kPa, x2 = 0.9035): 0.4872 ± 0.0037 mPa·s
viscosity (308.15 K, 101.33 kPa, x2 = 0.9631): 0.4449 ± 0.0034 mPa·s
viscosity (318.15 K, 101.33 kPa, x2 = 0.0524): 1.589 ± 0.012 mPa·s
viscosity (318.15 K, 101.33 kPa, x2 = 0.1036): 1.459 ± 0.011 mPa·s
viscosity (318.15 K, 101.33 kPa, x2 = 0.1429): 1.373 ± 0.01 mPa·s
viscosity (318.15 K, 101.33 kPa, x2 = 0.2064): 1.239 ± 0.0092 mPa·s
viscosity (318.15 K, 101.33 kPa, x2 = 0.2431): 1.167 ± 0.0086 mPa·s
viscosity (318.15 K, 101.33 kPa, x2 = 0.3083): 1.057 ± 0.0078 mPa·s
viscosity (318.15 K, 101.33 kPa, x2 = 0.3478): 0.992 ± 0.0073 mPa·s
viscosity (318.15 K, 101.33 kPa, x2 = 0.5098): 0.7782 ± 0.0057 mPa·s
viscosity (318.15 K, 101.33 kPa, x2 = 0.5621): 0.7222 ± 0.0053 mPa·s
viscosity (318.15 K, 101.33 kPa, x2 = 0.6094): 0.6719 ± 0.0049 mPa·s
viscosity (318.15 K, 101.33 kPa, x2 = 0.6479): 0.6343 ± 0.0047 mPa·s
viscosity (318.15 K, 101.33 kPa, x2 = 0.7082): 0.5827 ± 0.0043 mPa·s
viscosity (318.15 K, 101.33 kPa, x2 = 0.8062): 0.5098 ± 0.0038 mPa·s
viscosity (318.15 K, 101.33 kPa, x2 = 0.8388): 0.4805 ± 0.0037 mPa·s
viscosity (318.15 K, 101.33 kPa, x2 = 0.9035): 0.4425 ± 0.0034 mPa·s
viscosity (318.15 K, 101.33 kPa, x2 = 0.9631): 0.404 ± 0.0032 mPa·s
